Data from the NIST ThermoML archive (doi:10.1016/j.jct.2012.01.002).

Tests used:
[1] = 101.33 kPa, Liquid, Vibrating tube method
[2] = xn = mol fraction of the nth substance listed; conditions: 101 kPa, Liquid, Vibrating tube method

CCCCCCCC[N+](C)(CCCCCCCC)CCCCCCCC.O=S(=O)([N-]S(=O)(=O)C(F)(F)F)C(F)(F)F
[1]
Conditions | mass density [kg/m3]
298.15 K | 1106.9
303.15 K | 1103.2
313.15 K | 1095.7

CCCCCCCC[N+](C)(CCCCCCCC)CCCCCCCC.O=S(=O)([N-]S(=O)(=O)C(F)(F)F)C(F)(F)F + CC(C)O
mass density [kg/m3], [2]
Conditions | x1 = 0.053 | x1 = 0.1 | x1 = 0.2045 | x1 = 0.2841 | x1 = 0.3934 | x1 = 0.4824 | x1 = 0.5896 | x1 = 0.7066 | x1 = 0.7967 | x1 = 0.896
298.15 K | 876.9 | 932.6 | 1004.9 | 1033.8 | 1056.2 | 1067.6 | 1078.9 | 1089 | 1095.2 | 1100.5
303.15 K | 873 | 928.9 | 1001.5 | 1030.3 | 1052.6 | 1063.9 | 1075.2 | 1085.4 | 1091.6 | 1096.9
313.15 K | 865.1 | 921.3 | 994.7 | 1023.3 | 1045.1 | 1056.6 | 1068.1 | 1078.3 | 1084.4 | 1089.5

CCCCCCCC[N+](C)(CCCCCCCC)CCCCCCCC.O=S(=O)([N-]S(=O)(=O)C(F)(F)F)C(F)(F)F + CCC(C)O
mass density [kg/m3], [2]
Conditions | x1 = 0.0654 | x1 = 0.1397 | x1 = 0.2623 | x1 = 0.3282 | x1 = 0.4054 | x1 = 0.5045 | x1 = 0.6051 | x1 = 0.7046 | x1 = 0.808 | x1 = 0.9067
298.15 K | 894.2 | 956.2 | 1013.8 | 1033.4 | 1050.6 | 1066.7 | 1078.5 | 1087.3 | 1094.6 | 1100.8
303.15 K | 890.3 | 952.7 | 1010.2 | 1029.7 | 1046.9 | 1063 | 1074.8 | 1083.7 | 1091 | 1097.2
313.15 K | 882.6 | 945.3 | 1003.1 | 1022.5 | 1039.7 | 1055.7 | 1067.6 | 1076.5 | 1083.9 | 1090

CCCCCCCC[N+](C)(CCCCCCCC)CCCCCCCC.O=S(=O)([N-]S(=O)(=O)C(F)(F)F)C(F)(F)F + CCCCO
mass density [kg/m3], [2]
Conditions | x1 = 0.0654 | x1 = 0.1421 | x1 = 0.2623 | x1 = 0.3284 | x1 = 0.4437 | x1 = 0.5343 | x1 = 0.6385 | x1 = 0.7397 | x1 = 0.8432 | x1 = 0.9195
298.15 K | 898.1 | 962 | 1018 | 1037.3 | 1060.4 | 1072.8 | 1083.4 | 1091 | 1097.9 | 1102.1
303.15 K | 894.3 | 958.6 | 1014.6 | 1033.9 | 1056.8 | 1069.1 | 1079.8 | 1087.4 | 1094.2 | 1098.6
313.15 K | 887.2 | 951.8 | 1007.6 | 1026.9 | 1049.7 | 1062.1 | 1072.7 | 1080.5 | 1087.2 | 1091.6
